Laboratory results reported in PMC10100342, “Thiamyxins: Structure and Biosynthesis of Myxobacterial RNA‐Virus Inhibitors” (Angewandte Chemie (International Ed. in English), 2022).
≈ marks a conversion by molar mass, not a printed value. Where “and” joins values, the source holds several entries; their conditions need not be identical. Equal values may be shown once. Read-outs that look alike come from different tables or passages of the source.

Tests used:
hCoV-229E-luc = test: organism not typed; format: cell-based, alphacoronavirus HCoV-229E
in vitro [1] = settings: human
[2] = tested on: Micrococcus luteus DSM-1790; test: Antimicrobial activity (MIC); settings: DSM1790, read-out: MIC Micrococcus luteus DSM-1790
[3] = Cell viability (CellTiter Glo) of Huh-7 cells in parallel to ZIKV antiviral test; settings: human
Bacillus subtilis DSM-10 = test: Antimicrobial activity (MIC); settings: DSM10, read-out: MIC Bacillus subtilis DSM-10
DENV-R2A [4] = test: microbe, parasite or virus in culture; settings: Dengue virus, Huh-7, 48 h, read-out: IC50 against DENV-R2A
[5] = tested on: Candida. albicans DSM-1665; test: Antimicrobial activity (MIC); settings: DSM1665, read-out: MIC Candida. albicans DSM-1665
Mucor hiemalis DSM-2656 = test: Antimicrobial activity (MIC); settings: DSM2656, read-out: MIC Mucor hiemalis DSM-2656
DENV-R2A [6] = settings: CC50 Huh-7 versus IC50 DENV-R2A
in vitro [7] = settings: human; remark: listed apart in the source
ZIKV-H/PF/2013 = test: microbe, parasite or virus in culture; format: cell-based; settings: Zika virus, Huh-7, 48 h, read-out: IC50 against ZIKV-H/PF/2013
[8] = tested on: Candida albicans, Mucor hiemalis, Bacillus subtilis and Micrococcus luteus; test: Antimicrobial test panel (whole-panel statements); settings: in the tested concentrations
Procedure: All thiamyxins except congener A, which was only produced in low amounts, were tested against two
Gram-positive and two fungal pathogens.

[9] = Huh-7.5/Fluc cells, 48 h, 33 °C, Renilla luciferase, read-out: IC50 against hCoV-229E-luc
[10] = read-out: IC50 against hCoV-229E-luc, Huh-7.5/Fluc cells, 48 h, 33 °C, Renilla luciferase

Row | Compound | IC50 (hCoV-229E-luc; [9]) | CC50 (Huh-7.5 Fluc infected) | IC50 (hCoV-229E-luc; [10]) | CC50 (in vitro [1]) | MIC [2] | MIC (Bacillus subtilis DSM-10) | IC50 (DENV-R2A [4]) | MIC [5] | MIC (Mucor hiemalis DSM-2656) | IC50 (ZIKV-H/PF/2013) | further results
1 | COC(=O)/C=C(\OC)[C@H](C)[C@H](/C=C/c1csc(CCCCCCCC(C)C)n1)OC [Fulvuthiacene A] | 1.95 µM | > 10 µM |  |  |  |  |  |  |  |  | 
2 | COC(=O)/C=C(\OC)[C@H](C)[C@H](/C=C/c1csc(CCCCCC(C)C)n1)OC [Fulvuthiacene B] | 0.97 µM | > 10 µM |  |  |  |  |  |  |  |  | 
3 | C=C1NC(=O)C2(C)CSC(=N2)c2csc(n2)C2(C)CSC(=N2)C(C(C)CC)NC(=O)C(C)NC(=O)C(=CC(C)C)COC(=O)c2csc(n2)C(C(C)C)N(C)C(=O)C(COC)NC1=O (stereo not drawn) [Thiamyxin A] |  |  | 2.47 µM | > 10 µM |  |  |  |  |  |  | IC50 (hCoV-229E-luc; Huh7.5, 48 h, read-out: IC50 against hCoV-229E-luc, Huh-7.5/Fluc cells, 48 h, 33 °C, Renilla luciferase): 2.49 µM
4 | C=C1NC(=O)C2(C)CSC(=N2)c2csc(n2)C2(C)CSC(=N2)C(C(C)CC)NC(=O)C(C)NC(=O)C(=CC(C)C)COC(=O)c2csc(n2)C(C(C)C)N(C)C(=O)C(COC)NC1=O (stereo not drawn) [Thiamyxin B] |  |  | 2.39 µM |  | > 64 µg/mL | > 64 µg/mL | 0.56 µM | 64 µg/mL (≈ 66.8 µM) | > 64 µg/mL | 1.07 µM | CC50 at 48 h [3]: 2.25 µM; CC50 (Huh-7.5 Fluc infected; human): > 10 µM; difference between IC50 and CC50, DENV-R2A assay (DENV-R2A [6]): fourfold; CC50 at 48 h (in vitro [7]): 2.25 µM
5 | C=C(NC(=O)C1(C)CSC(c2csc(C3(C)CSC(C(NC(=O)C(C)NC(=O)C(=CC(C)C)CO)C(C)CC)=N3)n2)=N1)C(=O)NC(COC)C(=O)N(C)C(c1nc(C(=O)O)cs1)C(C)C (stereo not drawn) [Thiamyxin C] |  |  | > 10 µM | > 10 µM | 32 µg/mL (≈ 32.8 µM) | 64 µg/mL (≈ 65.6 µM) | 14.6 µM | > 64 µg/mL | 64 µg/mL (≈ 65.6 µM) | > 15 µM | IC50 (hCoV-229E-luc; read-out: IC50 against hCoV-229E-luc, Huh-7.5/Fluc cells, 48 h, 33 °C, Renilla luciferase, listed as KH_Mx152_976): 20.5 µM; IC50 (hCoV-229E-luc; read-out: IC50 against hCoV-229E-luc, Huh-7.5/Fluc cells, 48 h, 33 °C, Renilla luciferase, listed as thiamyxin C): ~20 µM and ~20.5 µM; CC50 at 48 h [3]: > 50 µM
6 | C=C(NC(=O)C1(C)CSC(c2csc(C3(C)CSC(C(NC(=O)C(C)NC(=O)C(=CC(C)C)CO)C(C)CC)=N3)n2)=N1)C(=O)NC(COC)C(=O)N(C)C(c1nc(C(=O)OCC(O)CO)cs1)C(C)C (stereo not drawn) [Thiamyxin D] |  |  | > 10 µM | > 10 µM | > 64 µg/mL | > 64 µg/mL |  | > 64 µg/mL | > 64 µg/mL |  | IC50 (hCoV-229E-luc; read-out: IC50 against hCoV-229E-luc, Huh-7.5/Fluc cells, 48 h, 33 °C, Renilla luciferase, listed as KH_Mx152_1050): 23.1 µM; IC50 (hCoV-229E-luc; read-out: IC50 against hCoV-229E-luc, Huh-7.5/Fluc cells, 48 h, 33 °C, Renilla luciferase, listed as thiamyxin D): ~20 µM and ~23.1 µM; effect on the antimicrobial test panel in words [8]: did not show effects
7 | NC(=O)c1ncn([C@@H]2O[C@H](CO)[C@@H](O)[C@H]2O)n1 [ribavirin, reference compound] |  |  |  |  |  |  | 2.3 µM |  |  | 2.5 µM | 
8 | Chondrosarid B | 4.19 µM | > 10 µM |  |  |  |  |  |  |  |  | 
